Test [1] relates to human iNOS. The settings on record: crude lysates; cited from earlier work.
The next test relates to human chondrocyte NOS. The settings on record: cited from earlier work.
Another test relates to murine iNOS. Kind of test: Sensitivity of murine iNOS to PDTC.
Test [2] has as its system human iNOS. Briefly: Sensitivity of human iNOS to PDTC.
For test [3], the system named is OA-NOS. Kind of test: Nitrite release by OA-affected articular cartilage, ex vivo organ culture. It counts as cell-based, human.
The subject of test [4] is iNOS. Kind of test: Nitrite accumulation in LPS-stimulated RAW 264.7 murine macrophages (Griess method). The settings on record: Mus musculus, RAW264.7; 30 μM; read-out: block of nitrite accumulation. In kind it is cell-based. The protocol:
Effects of NSAIDs on Nitrite Accumulation. […] The expression and activity of iNOS were monitored by estimation of the stable end-product: nitrites.
concentrations of NSAIDs for 2 h followed by addition of 100 ng/ml of LPS
After 16-18 h of incubation, the medium was used to estimate the
accumulation of nitrite by the Greiss method (Green et al., Anal Biochem.
The specific activity of iNOS was determined in cellfre
extracts at a given time period as described. The nitrite and specific
activity data are representative of mean ± SD value, as determined by
student t test, for 10 and 4 independent experiments, respectively. The p
values described are compared with LPSstimulated cells. […]

The next test concerns NF-κB. The settings on record: 30 μM; cited from earlier work.
The subject of test [5] is OA-NOS. Briefly: Sensitivity of OA-NOS to agents (Table 3 comparison).
The test system of the next test is calmodulin. Briefly: Calmodulin binding of NOS isoforms. The protocol: Extraction of Human Chondrocyte NOS and Western Blotting. Slices from articular cartilage affected by OA were frozen at -70° C., milled to fine particulate in liquid nitrogen, and sequentially extracted (10 ml/gram wet weight tissue) with neutral salt buffer (Tris HCl:saline) containing protease inhibitors (1 mM PMSF, 2 mM N-ethylmaleimide, and 0.025 mg/ml leupeptin), followed with the same buffer containing 10 mM EDTA, with 4 M guanidine-HCl, and then with a detergent buffer containing 10% SDS with protease inhibitors. Samples were run on 9% or 4-15% gradient SDS-PAGE gels under non-reducing conditions, transferred to nitrocellulose, and Western blotted with α-iNOS/α-ncNOS or α-calmodulin mAb (Cho et al., J. Exp. Med. 176:599-604, 1992). Bound antibody was detected by a secondary antibody conjugated with horseradish peroxidase, and developed using the ECL Western blotting system (Amersham, Arlington Heights, Ill.) on Kodak Xomatic X-ray film.

Test [6] concerns iNOS. Kind of test: iNOS expression in stimulated rat chondrosarcomas. In kind it is cell-based. The protocol:
NSAIDs were tested in: (FIG. 5A) rat chondrosarcomas stimulated with LPS, and (FIG. 5B) unstimulated OA cartilage (n=3).

The conditions of test [7]: cited from earlier work.
The next test relates to rabbit chondrocytes. The settings on record: cited from earlier work.
For test [8] the following is noted: systemic, rodent; cited from earlier work.
Test [9] relates to iNOS. The settings on record: cited from earlier work.

“Also recorded” adds a separate entry of the source. Where only a bound is given, the exact number is not on record here.

As for `O=C(O)CN(CCOCCOCCN(CC(=O)O)CC(=O)O)CC(=O)O` [EGTA], the “human iNOS activity” value in the test with human iNOS [1] is given as “markedly reduces”. Also, the “enzyme activity in cell-free extracts” value in the test with human chondrocyte NOS is given as “no effect on enzyme activity”.

Turning to `S=C(S)N1CCCC1` [PDTC, pyrrolidine dithiocarbamate], the “effect on murine iNOS” value in the test on murine iNOS is listed as “blocks murine iNOS”. Moreover, the “effect on human iNOS” value in the test with human iNOS [2] is given as “not human iNOS”. Also, the inhibition at 30 µM was above 90% in the test with OA-NOS [3] (Homo sapiens, cycloheximide 35 μM or PDTC 30 μM, 24 h, cytokine/endotoxin-induced and control cartilage, read-out: block of nitrite accumulation); above 90% in the test on iNOS [4]. Moreover, the “inhibition of NF-κB as component of iNOS transcription/expression” value in the test with NF-κB is “inhibited”. Besides, the “sensitivity of OA-NOS” value in the test on OA-NOS [5] is reported as “blocked; also recorded: shows sensitivity”.

On to “human hepatocyte iNOS: obtained from NIH 3T3 fibroblasts transduced with a retrovirus carrying the human hepatocyte iNOS cDNA”, for which the Calmodulin binding result with calmodulin is on record as “complexed with calmodulin”.

Turning to `CN=C(N)NCCC[C@H](N)C(=O)O` [L-NMMA, N^G -monomethyl-L-arginine acetate], the “inhibition of iNOS expression in rat chondrosarcomas” value with iNOS [6] (72 h, added 1 h prior to cytokines) was ~ 65%. Moreover, the “effect on iNOS in rat chondrosarcomas” value in the test with iNOS [6] (LPS/cytokine-stimulated, L-NMMA 500 μM, indomethacin 20 μM) is recorded as “significant inhibition of iNOS”. In test [7] (partial inhibition of NOS), the “paw swelling” value is listed as “sufficient to reduce paw swelling”. In test [7] (rat adjuvant arthritis), the “NO biosynthesis, paw swelling and histopathological changes in ankle joints” value is given as “blocked (in a dose-dependent manner)”. Further, the “proteoglycan synthesis” value in the test on rabbit chondrocytes is on record as “restored proteoglycan synthesis”. The “effect on nitrite accumulation / NOS expression in OA cartilage” value with OA-NOS [3] (unstimulated OA cartilage, L-NMMA 500 μM, indomethacin 5 μM) is “inhibited”. For the same compound, in the test on OA-NOS [5], the “sensitivity of OA-NOS” value is listed as “blocked; also recorded: shows sensitivity”.

Turning to TGF-β1: cytokine TGF-β1, the “arthritis morbidity / protection” value in test [8] was “significant degree of protection”. Moreover, the “iNOS expression in macrophages” value in the test on iNOS [9] was “suppresses iNOS expression”.
